target: T1, human PAD4 (Homo sapiens, UniProt Q9UM07); assay: In vitro PAD4 BAEE biochemical assay; conditions: BAEE substrate 3 mM, 5 nM PAD4, 2 mM calcium chloride; geometric mean of multiple experiments
T1 construct: human PAD4 (NM_012387), A2-P663, was PCR amplified; His-SUMO (N, cleaved yes); made in house; host or cells: E. coli BL21(DE3)
How it was run: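 Recombinant PAD4 (5 nM final) with 2 mM CaCl2 was preincubated with compound for 30 min at 25 °C in MOPS pH 7.6 buffer with DTT, then reacted with 3 mM BAEE for 2 h at 25 °C. Released ammonia was detected fluorimetrically with o-phthalaldehyde/DTT; IC50 from four-parameter fit, geometric mean of experiments.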

T1 sequence (Q9UM07 2-663): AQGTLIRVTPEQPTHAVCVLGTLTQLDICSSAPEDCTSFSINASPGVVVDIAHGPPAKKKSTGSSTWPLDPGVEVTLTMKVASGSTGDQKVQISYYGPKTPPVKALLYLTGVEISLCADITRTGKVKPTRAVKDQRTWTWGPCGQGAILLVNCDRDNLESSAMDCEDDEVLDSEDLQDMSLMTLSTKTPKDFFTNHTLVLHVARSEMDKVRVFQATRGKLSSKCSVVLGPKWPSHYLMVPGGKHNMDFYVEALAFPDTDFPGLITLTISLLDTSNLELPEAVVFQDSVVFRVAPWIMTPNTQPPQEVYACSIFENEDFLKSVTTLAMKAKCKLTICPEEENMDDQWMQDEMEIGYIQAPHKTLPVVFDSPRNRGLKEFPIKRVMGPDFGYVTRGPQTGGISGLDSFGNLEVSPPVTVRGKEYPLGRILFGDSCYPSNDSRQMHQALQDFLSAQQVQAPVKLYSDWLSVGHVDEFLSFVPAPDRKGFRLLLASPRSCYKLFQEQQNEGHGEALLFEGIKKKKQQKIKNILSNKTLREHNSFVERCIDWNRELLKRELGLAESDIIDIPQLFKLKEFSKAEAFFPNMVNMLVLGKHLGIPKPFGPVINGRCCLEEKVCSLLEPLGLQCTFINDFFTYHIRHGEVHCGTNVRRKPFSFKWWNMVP

Point of comparison: C[C@H]1NC(=O)C(C)(C)CCCCCCn2c(-c3nc4cc(C(=O)N[C@H]5CNCC[C@@H]5F)c(Cl)cc4n3C)cc3ccc1nc32 [Example 541, 6-chloro-~{N}-[(3~ {S),4~{S})-4-fluoro-3-piperidyl]-1-methyl-2-[(11~{R})-8,8,11-trimethyl-9-oxo-1,10,19-triazatricyclo[10.5.2.0^ {15,18}]nonadeca-12(19), 13,15(18),16-tetraen-17-yl]benzimidazole-5-carboxamide], IC50 123 nM. Against it:
- COc1cc(C(=O)N2CCC(OC3CC3)C(N)C2)cc2nc(-c3cc4ccc5nc4n3CCCCCCC(C)(C)C(=O)N[C@@H]5C)n(C)c12 (stereo partly drawn) [Example 527, (11~{R})-17-[5-[3-amino-4-(cyclopropoxy)piperidine-1-carbonyl]-7-methoxy-1-methyl-benzimidazol-2-yl]-8,8,11-trimethyl-1,10,19-triazatricyclo[10.5.2.0^ {15,18}]nonadeca-12(19),13,15(18), 16-tetraen-9-one] — 1.7-fold higher, 215 nM
- COc1cc(C(=O)N2CCC[C@@H](N)[C@H]2C)cc2nc(-c3cc4ccc5nc4n3CCCCCc3nccnc3C(=O)N[C@@H]5C)n(C)c12 [Example 528, (2~{R})-17-[5-[(2~ {R},3~{R})-3-amino-2-methyl-piperidine-1-carbonyl]-7-methoxy-1-methyl-benzimidazol-2-yl]-2-methyl-3,6,9,16,22-pentazatetracyclo [14.5.2.0^{5,10}.0^{19, 23}]tricosa-1(22),5(10), 6,8,17,19(23),20-heptaen-4-one] — 2.2-fold lower, 55 nM
- COc1cc(C(=O)N[C@@H]2CNC[C@@H](O)C2)cc2nc(-c3cc4ccc5nc4n3CCCCCCC(C)(C)C(=O)N[C@@H]5C)n(C)c12 [Example 529, ~{N}-[(3~{S},5~{S})-5-hydroxy-3-piperidyl]-7-methoxy-1-methyl-2-[(11~{R})-8,8,11-trimethyl-9-oxo-1,10,19-triazatricyclo[10.5.2.0^{15,18}]nonadeca-12(19),13,15(18),16-tetraen-17-yl]benzimidazole-5-carboxamide] — 3.3-fold higher, 409 nM
- COc1cc(C(=O)N[C@H]2CNC[C@H](O)C2)cc2nc(-c3cc4ccc5nc4n3CCCCCCC(C)(C)C(=O)N[C@@H]5C)n(C)c12 [Example 530, ~{N}-[(3~{R},5~ {R})-5-hydroxy-3-piperidyl]-7-methoxy-1-methyl-2-[(11~{R})-8,8,11-trimethyl-9-oxo-1,10,19-triazatricyclo [10.5.2.0^{15,18}]nonadeca-12(19),13,15(18),16-tetraen-17-yl]benzimidazole-5-carboxamide] — 2.4-fold lower, 51 nM
- COc1cc(C(=O)N2CC[C@H]3CCN[C@H]3C2)cc2nc(-c3cc4ccc5nc4n3CCCCC[C@@H]3C[C@H]3C(=O)N[C@@H]5C)n(C)c12 [Example 531, (2~{R},5~{R},7~{R})-14-[5-[(3~{a}-{R},7~ {a}~{R})-1,2,3,3~ {a},4,5,7,7~{a}-octahydropyrrolo[2,3-c]pyridine-6-carbonyl]-7-methoxy-1-methyl-benzimidazol-2-yl]-2-methyl-3,13,19-triazatetracyclo[11.5.2.0^ {5,7}.0^{16,20}]icosa-1(19),14,16(20),17-tetraen-4-one] — 3.4-fold lower, 36 nM
- COc1cc(C(=O)N2CC[C@@H]3CCN[C@@H]3C2)cc2nc(-c3cc4ccc5nc4n3CCCCC[C@@H]3C[C@H]3C(=O)N[C@@H]5C)n(C)c12 [Example 532, (2~{R},5~{R},7~{R})-14-[5-[(3~{a}~{S}, 7~{a}~{S})-1,2,3,3~ {a},4,5,7,7~{a}-octahydropyrrolo[2,3-c]pyridine-6-carbonyl]-7-methoxy-1-methyl-benzimidazol-2-yl]-2-methyl-3,13,19-triazatetracyclo[11.5.2.0^ {5,7}.0^{16,20}]icosa-1 (19),14,16(20),17-tetraen-4-one] — 1.9-fold higher, 239 nM
- COc1cc(C(=O)N2CC[C@@H](CO)[C@@H](N)C2)cc2nc(-c3cc4ccc5nc4n3CCCCCCC(C)(C)C(=O)N[C@@H]5C)n(C)c12 [Example 533, (11~{R})-17-[5-[(3~ {R},4~{R})-3-amino-4-(hydroxymethyl)piperidine-1-carbonyl]-7-methoxy-1-methyl-benzimidazol-2-yl]-8,8,11-trimethyl-1,10,19-triazatricyclo [10.5.2.0^{15,18}]nonadeca-12(19),13,15(18),16-tetraen-9-one] — 3.2-fold higher, 398 nM
- COc1cc(C(=O)N2[C@H]3CC[C@@H]2[C@H](N)C3)cc2nc(-c3cc4ccc5nc4n3CC(F)(F)CCCCCC(=O)N[C@@H]5C)n(C)c12 [Example 534, (11~{R})-17-[5-[(1~ {R},2~{R},4~{S})-2-amino-7-azabicyclo[2.2.1]heptane-7-carbonyl]-7-methoxy-1-methyl-benzimidazol-2-yl]-3,3-difluoro-11-methyl-1,10,19-triazatricyclo[10.5.2.0^ {15,18}]nonadeca-12(19),13,15(18),16-tetraen-9-one] — 2.2-fold lower, 56 nM
- COc1cc(C(=O)N2C[C@@H]3C[C@@H]3[C@@H](N)C2)cc2nc(-c3cc4ccc5nc4n3CCCCCCC(C)(C)C(=O)N[C@@H]5C)n(C)c12 [Example 535, (11~{R})-17-[5-[(1~ {R},5~{R},6~{S})-5-amino-3-azabicyclo[4.1.0]heptane-3-carbonyl]-7-methoxy-1-methyl-benzimidazol-2-yl]-8,8,11-trimethyl-1,10,19-triazatricyclo[10.5.2.0^ {15,18}]nonadeca-12(19),13,15(18),16-tetraen-9-one] — 3.1-fold higher, 384 nM
- COc1cc(C(=O)N2C[C@H](N)C[C@H](O)C2)cc2nc(-c3cc4ccc5nc4n3CCCCCCC(C)(C)C(=O)N[C@@H]5C)n(C)c12 [Example 536, (11~{R})-17-[5-[(3~{R},5~{S})-3-amino-5-hydroxy-piperidine-1-carbonyl]-7-methoxy-1-methyl-benzimidazol-2-yl]-8,8,11-trimethyl-1,10,19-triazatricyclo[10.5.2.0^ {15,18}]nonadeca-12(19), 13,15(18),16-tetraen-9-one] — within 1.5-fold, 137 nM
- Cc1cc2c(cc1C(=O)N[C@H]1CNCC[C@@H]1F)nc(-c1cc3ccc4nc3n1CCCCCCC(C)(C)C(=O)N[C@@H]4C)n2C [Example 537, ~{N}-[(3~{S},4~ {S})-4-fluoro-3-piperidyl]-1,6-dimethyl-2-[(11~{R})-8,8,11-trimethyl-9-oxo-1,10,19-triazatricyclo [10.5.2.0^{15,18}]nonadeca-12(19),13,15(18), 16-tetraen-17-yl]benzimidazole-5-carboxamide] — within 1.5-fold, 87 nM
- C[C@H]1NC(=O)C(C)(C)CCCCCCn2c(-c3nc4cc(C(=O)N[C@H]5CNCC[C@@H]5F)c(F)c(F)c4n3C)cc3ccc1nc32 [Example 538, 6,7-difluoro-~{N}-[(3~ {S},4~{S})-4-fluoro-3-piperidyl]-1-methyl-2-[(11~{R})-8,8,11-trimethyl-9-oxo-1,10,19-triazatricyclo[10.5.2.0^ {15,18}]nonadeca-12(19),13,15(18),16-tetraen-17-yl]benzimidazole-5-carboxamide] — within 1.5-fold, 90 nM
- C[C@H]1NC(=O)[C@H]2C[C@@H]2CCCCCn2c(-c3nc4cc(C(=O)N[C@H]5CNCC[C@@H]5F)c(F)cc4n3C3CC3)cc3ccc1nc32 [Example 539, 1-cyclopropyl-6-fluoro-~{N}-[(3~{S},4~{S})-4-fluoro-3-piperidyl]-2-[(2~{R},5~{S},7~ {S})-2-methyl-4-oxo-3,13,19-triazatetracyclo [11.5.2.0^{5,7}.0^{16,20}]icosa-1(19),14,16 (20),17-tetraen-14-yl]benzimidazole-5-carboxamide] — within 1.5-fold, 175 nM
- C[C@H]1NC(=O)C(C)(C)OCCCCCn2c(-c3nc4cc(C(=O)N[C@H]5CNCC[C@@H]5F)c(F)cc4n3C3CC3)cc3ccc1nc32 [Example 540, 1-cyclopropyl-6-fluoro-~{N}-[(3~{S},4~{S})-4-fluoro-3-piperidyl]-2-[(11~{R})-8,8,11-trimethyl-9-oxo-7-oxa-1,10,19-triazatricyclo[10.5.2.0^ {15,18}]nonadeca-12(19),13,15(18),16-tetraen-17-yl] benzimidazole-5-carboxamide] — within 1.5-fold, 90 nM
- COc1cc(C(=O)N2C[C@@H]3C[C@@H]3[C@@H](N)C2)cc2nc(-c3cc4ccc5nc4n3CCCCCCC(C)(C)C(=O)N[C@@H]5C)n(C)c12 [Example 542, (11~{R})-17-[5-[(1~ {R},5~{R},6~{S})-5-amino-3-azabicyclo [4.1.0]heptane-3-carbonyl]-7-methoxy-1-methyl-benzimidazol-2-yl]-8,8,11-trimethyl-1,10,19-triazatricyclo [10.5.2.0^{15,18}]nonadeca-12(19),13,15(18), 16-tetraen-9-one] — 3.9-fold higher, 479 nM
- COc1cc(C(=O)N2C[C@H]3C[C@H]3[C@H](N)C2)cc2nc(-c3cc4ccc5nc4n3CCCCCCC(C)(C)C(=O)N[C@@H]5C)n(C)c12 [Example 543, (11~{R})-17-[5-[(1~ {S},5~{S},6~{R})-5-amino-3-azabicyclo [4.1.0]heptane-3-carbonyl]-7-methoxy-1-methyl-benzimidazol-2-yl]-8,8,11-trimethyl-1,10,19-triazatricyclo [10.5.2.0^{15,18}]nonadeca-12(19),13,15(18), 16-tetraen-9-one] — 3.3-fold higher, 405 nM
- C[C@H]1NC(=O)[C@]2(C)C[C@H]2CCCCCn2c(-c3nc4cc(C(=O)N[C@H]5CNCC[C@@H]5F)c(F)cc4n3C3CC3)cc3ccc1nc32 [Example 544, 1-cyclopropyl-2-[(2~ {R},5~{R},7~{R})-2,5-dimethyl-4-oxo-3,13,19-triazatetracyclo [11.5.2.0^{5,7}.0^{16,20}]icosa-1(19),14,16(20), 17-tetraen-14-yl]-6-fluoro-~ {N}-[(3~{S},4~{S})-4-fluoro-3-piperidyl]benzimidazole-5-carboxamide] — 3.1-fold lower, 40 nM

From patent publication US11976083B2, “Inhibitors of peptidylarginine deiminases” (Gilead Sciences, Inc., priority 2020, dated 2024)
